Measured values as given in US20210371463A1, “Modified Netrin-1 Peptides and Compositions for Cardioprotection” (The Regents of the University of California, priority 2018, published 2021).
Bridge positions count the residues as written; N and C are the ends. Ends that are not written are not given here. mini‑PEG = diethylene glycol

Tested on: mouse hearts subjected to ischemia/reperfusion (I/R) injury
Experiment: Langendorff perfusion ischemia/reperfusion (I/R) injury, infarct size analysis (TTC staining)
Design: % MI Reduction: concentration or dose not given beside the values
Settings: for % MI Reduction: vs. I/R Control; for % Improvement in MI Reduction: modified peptide vs. closest prior art peptide (V1-9aa, V2-10aa or V3-11aa); for Infarct size: fragments of prior art peptides, Control I/R 37.6±1.3%, Mean±SEM, p<0.001
Experimental: Male C57BL/6J mice (8-12 weeks old) were obtained from the Charles River Laboratories (Wilmington, Mass., USA). After anesthetized with intraperitoneal pentobarbitone (60 mg/kg), mouse hearts were harvested immediately and the aortas were cannulated with a 20-gauge stainless steel blunt needle and transferred to the Langendorff rig and perfused retrograde instantly with modified Krebs-Henseleit buffer (KHB) for 30 minutes as previously described. See Bouhidel et al. Front Biosci (Landmark Ed) 2014; 19:566-570, and Zhang et al., J Mol Cell Cardiol. 2010; 48:1060-1070. Then hearts were pre-perfused for 45 minutes with or without netrin-1 (100 ng/ml), or different peptide fragments at the same molar concentration 1.47 nmol/L as netrin-1, prior to being subjected to ischemia/reperfusion (I/R) injury (a 20-minute global ischemia followed by a 60-minute reperfusion with or without netrin-1 or different peptide fragments). Hearts were then harvested for analyses of infarct size. For post-conditioning treatment with peptide fragments, hearts underwent 40 minutes of KHB perfusion, 20 minutes of global ischemia, and a 60-minute reperfusion with different peptide fragments.
At the end of I/R protocol, hearts were sliced perpendicular to the long-axis of the heart at 1 mm intervals and stained with 1% triphenyl tetrazolium chloride (TTC) in PBS for 10 minutes at room temperature. After washing with PBS once, sections of the hearts will be fixed in 10% formalin overnight. The heart slices were then digitally photographed for planimetry using NIH Image 1.62. Infarct size is expressed as an infarct-to-risk zone ratio (the risk zone is the whole ventricular volume in this global ischemic model).
Densitometric data of western blotting was obtained by software Image J. Grouped data was analyzed by software Gradpad Prism δ. All values are expressed as Mean±SEM. Comparisons of more than two groups were performed using a one way ANOVA analysis with Newman-Keuls test as a post-hoc test. Statistical significance is set as p<0.05.

[1] = Table 2, modified netrin-1 peptides, I/R Control 43.1625, p < 0.001 vs. Control
[2] = Table 2, modified netrin-1 peptides
[3] = Table 1, prior art peptides, I/R Control 37.6

“(mini-PEG)-CDCRHNTAG ({mini‑PEG}-CDCRHNTAG; cysteine pairing not given here) [V1P]” was tested, and the “Infarct Size Mean (%)” value [1] was 10.0100%, the “% MI Reduction” value [2] was 77% and the “% Improvement in MI Reduction” value was “(77 − 55)/55 = 40%”.

With “(mini-PEG)-CLNCRHNTAG ({mini‑PEG}-CLNCRHNTAG; cysteine pairing not given here) [V2P]” the “Infarct Size Mean (%)” value [1] was 18.3315%, the “% MI Reduction” value [2] was 58% and the “% Improvement in MI Reduction” value was “(58 − 51)/51 = 14%”.

With “(mini-PEG)-CPCKDGVTIGIT ({mini‑PEG}-CPCKDGVTIGIT; cysteine pairing not given here) [V3P]” the “Infarct Size Mean (%)” value [1] was 12.9700% and the “% MI Reduction” value [2] was 70%.

With CDCRHNTAG (disulfide 1-3) [V1C] the “Infarct Size Mean (%)” value [1] was 11.2700%, the “% MI Reduction” value [2] was 74% and the “% Improvement in MI Reduction” value was “(74 − 55)/55 = 35%”.

For “CDCRHNTAG (not fully specified (bridges); cysteine pairing not given here) [V1-9aa, reference compound]”, the “Infarct Size Mean (%)” value [3] was 16.8%, the “% MI Reduction” value (Table 1, prior art peptides) was 55% and the Infarct size was 16.8±2.2%.

For “CLNCRHNTAG (Peptide based on human Netrin-1 sequence) [V2-10aa, reference compound]”, the “Infarct Size Mean (%)” value [3] was 18.6%, the “% MI Reduction” value (Table 1, prior art peptides) was 51% and the Infarct size was 18.6±1.7%.

With “CPCKDGVTGIT (Peptide based on human Netrin-1 sequence) [V3-11aa, reference compound]” the “Infarct Size Mean (%)” value [3] was 16.7%, the “% MI Reduction” value (Table 1, prior art peptides) was 56% and the Infarct size was 16.7±3.0%.

For “SDCRHNTAG (Peptide based on human Netrin-1 sequence) [V1S]”, the “Infarct Size Mean (%)” value [1] was 12.7750%, the “% MI Reduction” value [2] was 71% and the “% Improvement in MI Reduction” value was “(71 − 55)/55 = 29%”.

In the case of TDCRHNTAG [V1T], the “Infarct Size Mean (%)” value [1] is reported as 15.4650%, the “% MI Reduction” value [2] is reported as 64% and the “% Improvement in MI Reduction” value is reported as “(64 − 55)/55 = 16%”.
